Patent US9174988B2, “Small molecule inhibitors of hepatitis C virus” (TRUSTEES OF BOSTON UNIVERSITY, priority 2009, dated 2015)
Where two headings read alike, the source gives them in different places.

Legend:
[1] = biological target: T1, core106 (HCV core protein domain) dimerization (Hepatitis C virus genotype 1a, UniProt P27958); assay: Core106 ALPHA screen (AlphaScreen) core dimerization assay; assay type: binding; details: for inhibition of core dimerization (in words): level of activity in words, partly relative to 16
T1 construct: a core106 protein domain was tagged with either Glutathione-S-transferase (GST) tag or a Flag peptide tag
Experimental: FIG. 16b is a dose-response analysis of compound 1 (SL201). Core106 ALPHA screen assay was used for the dose-response analyses. The compound was dosed from 0 to 100 μM. The IC50 was calculated using a non-linear regression ‘Log (inhibitor) versus response’ with four points for each concentration.
Core106 ALPHA screen assay was used for the dose response analyses. The compounds were dosed from 0 to 100 μM. The IC50 were calculated using a nonlinear regression “Log (inhibitor) vs. response” with 4 points for each concentration. The difference in IC50 for compound 1 (SL201) is due to the using two different lots of SL201 and the values are within experimental error.
This assay employed the AlphaScreen® technology, a secondary Amplified Luminescent Proximity Homogeneous Assay as described in Kota, et al, J. Gen Virol. (2009) 90: 1319-1328, content of which is herein incorporated by reference. AlphaScreen is based on the use of photoactive donor and acceptor beads that recognize specific tags on interacting proteins (Peppard, 2003). Core106 dimerization was confirmed using AlphaScreen technology in which a core106 protein domain was tagged with either Glutathione-S-transferase (GST) tag or a Flag peptide tag. The untagged core106 protein domain was used as a model competitor in the assay. The proteins were diluted to working concentrations in ‘protein buffer’ (100 mM HEPES pH 7.5, 1 mM EDTA, 5 mM DTT, 0.1% CHAPS, 10% glycerol). The donor and acceptor beads were diluted to working concentrations in ‘bead buffer’ (20 mM HEPES pH7.5, 125 mM NaCl, 0.1% BSA, 0.1% CHAPS). GST-tagged core106 (150 nM) was incubated with 150 nM of Flag-tagged core106 for 1 h at room temperature. Anti-Flag acceptor beads (Perkin Elmer Lifesciences) were added to the proteins at a final concentration of 20 μg/ml and incubated for 1 h at room temperature. Then, Glutathione donor beads (Perkin Elmer Lifesciences) were added to the proteins at a final concentration of 20 μg/ml and incubated for 1 h. The assays were executed in a white 384 well Packard opti plate (Perkin Elmer Lifesciences) and were read on Perkin Elmer Envision.
Uninhibited or 0% inhibition control is defined as wells containing only GST-core106 and Flag-core106. 100% inhibition control is defined as wells containing GST-core106 and Flag-core106 with core106 as an inhibitor. Test compound is wherein the test compound is analyzed.
Compounds were tested in triplicate in a 10-point series starting at a nominal test concentration of 50 nM. For each test compound, percent inhibition was plotted against compound concentration. A four parameter equation describing a sigmoidal dose-response curve was plotted using GraphPad Prism® (GraphPad Software Inc). The reported IC50 values were generated from fitted curves by solving for the X-intercept value at the 50% inhibition level of the Y-intercept value.

[2] = XTT cytotoxicity assay (CC50); assay type: cell-based; details: human, CC50
Source text: (§1) This assay utilized the compound XTT (2,3-bis[2-methoxy-4-nitro-5-sulfophenyl]-2H-tetrazolium-5-carboxyanilide inner salt) with addition of an electron coupling agent phenazine methosulfate (PMS) to measure mitochondrial dehydrogenases activity in living cells, e.g., Huh-7.5 cells. Dehydrogenases in mitochondria of living cells cleave the tetrazolium ring of XTT changing the color of the solution from clear to orange. As designed, compounds that reduce cell viability will reduce activity of the mitochondrial dehydrogenases, and leave a decreased orange color in solution.
(§2) The Huh-7.5 cell line was routinely cultured in 15-cm dishes at 37 degrees C. and 95% relative humidity (RH). The growth media consisted of DMEM supplemented with 10% v/v certified fetal bovine serum, 4 mM L-glutamine, 1 mM sodium pyruvate, 1× antibiotic mix (penicillin, streptomycin, and glutamine), and 1× non-essential amino acids.
(§3) Prior to the start of the assay 8000 cells in 100 microliter volume of colorless growth media were dispensed into each well of 96-well tissue culture-treated microtiter plates and incubated overnight at 37 degrees C. (5% CO2, 95% RH) to allow cells to adhere to the plate. The next day, 100 microliter of test compound in DMSO (1.25% final DMSO concentration) and DMSO only were added to wells. Wells with only test compound in media without cells were used to normalize the data (to account for the color a test compound may have). Next, the plates were incubated for 72 hours at 37 degrees C. (5% CO2, 95% RH). Solution of XTT-PMS was prepared in 1×PBS and added to the cells in 50 microliter volume to each well and incubated for 4 hours at 37 degrees C. (5% CO2, 95% RH). After equilibrating the plates to room temperature for 10 minutes, optical density at 450 nm and […] was measured on Biotek plate reader.
(§4) The percent inhibition for each compound was calculated as follows: % Inhibition=((DMSO Control−Test compound)/DMSO Control)*100, wherein Test compound is defined as wells containing test compound.
(§5) Compounds were tested in triplicate in a 7-point 1:3 dilution series starting at a nominal test concentration of 320 micromolar. For each test compound, percent inhibition was plotted against compound concentration. A four parameter equation describing a sigmoidal dose-response curve was then fitted with adjustable baseline using MicroSoft Excel software. The reported CC50 values were generated from fitted curves by solving for the X-intercept value at the 50% inhibition level of the Y-intercept value.

[3] = test system: HCV 2a J6/JFH-1; assay: HCV infectivity assay by real-time RT-PCR of HCV RNA (EC50 at T1 and T2); assay type: cell-based, hepatitis C virus; details: for EC50: Hepatitis C virus; for EC50's (stage not specified): HCV 2a strain J6/JFH-1 in hepatoma cells
Experimental: In this assay HCV infectivity is measured using real-time RT-PCR to monitor changes in expression of HCV 2a J6/JFH-1 RNA. Cells are incubated with test compound in the presence of HCV, followed by isolation of RNA, conversion to cDNA, and Taqman-based QPCR. As designed, a compound that inhibits HCV infectivity will reduce HCV RNA expression, leading to decreased production of the PCR amplicon, thereby reducing fluorescence, and increasing Ct.
Huh-7.5 cells were plated the day before the assay. After allowing the cells to adhere overnight, test compound was prepared in HCV supernatant by making 1:10 serial dilutions from 100 micromolar down to 0.001 micromolar. Doses of test compound in virus were added to cells and incubated for 24 hours. The next day, cell culture media was removed from each well and replaced with same dilutions of compound in complete media were added to cells and incubated for another 48 hours for T1 timepoint. Then cells were lysed and RNA was isolated using the RNeasy kit (QIAGEN, Valencia, Calif.). Supernatant from T1 was transferred to fresh naïve cells and incubated for 24 hours. Culture media were removed from cells and replaced with complete media and incubated for 48 hours for T2 timepoint. Cells for T2 timepoint were lysed and RNA was isolated using the RNeasy kit (QIAGEN, Valencia, Calif.). DNA was generated using the Taqman reverse transcription kit (Applied Biosystems, Foster City, Calif.). Quantitative real-time polymerase chain reaction (PCR) was performed in triplicate using LightCycler RNA Amplification Kit HybProbe master mix (Roche) with Taqman MGB Probe 6FAM-[…]-MGBNFQ on a model LightCycler480 real time PCR system (Roche). Data are expressed as the mean fold change plus or minus SE of 3 replicates normalized to 100 ug total RNA. Primers used were forward […] and reverse […]. The range of activity was normalized based on measurement of total RNA. Compounds were tested in triplicate in a 6-point 1:10 dilution series starting at a nominal test concentration of 100 micromolar.
The compounds were then studied in the same Huh7-5 cells infected with HCV 2a strain J6/JFH-1 (Kota, et al., ASSAY Drug Dev. Tech (2009) 8: 96). Huh-7.5 hepatoma cells were electroporated with RNA from HCV and the 72-hour supernatant was used as a source of infectious virus. This supernatant was combined with compounds identified as inhibitors of core dimerization. Two stages of infection were studied: early stage (T1), corresponding to the initial 72-hour culture of naïve cells infected in the presence of the inhibitor, and late stage (T2), corresponding to the second 72-hour passage through naïve cells. HCV RNA detected in T1 results from actual viral infection and replication. HCV RNA detected in T2 results from infectious virus secreted in T1 and replicated in freshly infected naïve cells. Real-time reverse-transcriptase PCR was done on RNA extracted and purified from the cells treated with increasing concentrations (0.001-100 μM) of each of the compounds. […] For comparative purposes, data for BILN2061a known inhibitor of the NS3/NS4A protease (Lamarre, et al., Nature (2003) 426: 186), is included.

[4] = test system: Huh-7.5 cells; assay: XTT cytotoxicity assay (CC50); assay type: cell-based; details: human, 72 h
Source text: as §1, §2, §3, §4, §5

[5] = AlphaScreen, read-out: IC50 for inhibition of core dimerization
[6] = Huh7.5, read-out: HCV2a J6/JFH-1 T1-EC50
[7] = Huh7.5, read-out: HCV2a J6/JFH-1 T2-EC50
[8] = inhibition of core dimerization, Table 3, read-out: IC50
[9] = inhibition of core dimerization, see FIG. 17, Table 2, read-out: IC50

T1 sequence (P27958 2-106): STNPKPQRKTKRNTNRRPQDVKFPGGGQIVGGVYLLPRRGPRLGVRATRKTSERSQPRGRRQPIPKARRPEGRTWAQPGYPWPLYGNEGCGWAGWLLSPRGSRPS

| Structure (SMILES) | IC50 [1, 5] | inhibition of core dimerization (in words) [1] | CC50 at 72 h [2] | EC50 ([3]; read-out: HCV 2A T1 - EC50) | EC50 ([3]; read-out: HCV 2A T2 - EC50) | EC50 [3, 6] | EC50 [3, 7] | IC50 [1, 8] | IC50 [1, 9] | CC50 [4] | EC50's (stage not specified) [3] |
| --- | --- | --- | --- | --- | --- | --- | --- | --- | --- | --- | --- |
| COC(=O)C1=C(C(=O)OC)C2N(CCCCCn3cc(-c4ccc(OC)cc4C)nn3)c3ccccc3[C@@]23CCC(=O)N(Cc2ccccc2)C3=N1 (some centres unmarked) [Compound 27] | 92 nM | sub-micromolar | > 100 µM | 1400 nM | 1100 nM | – | – | – | – | – | – |
| COc1ccc2c(O[C@@H]3C[C@H]4C(=O)N[C@]5(C(=O)O)C[C@H]5/C=C\CCCCC[C@H](NC(=O)OC5CCCC5)C(=O)N4C3)cc(-c3csc(NC(C)C)n3)nc2c1 [BILN2061, reference compound] | – | – | 5.3 µM | – | – | 72 nM | 71 nM | – | – | – | – |
| C=CCN1c2ccccc2[C@]23CCC(=O)N(Cc4ccccc4)C2=NC(C(=O)OC)=C(C(=O)OC)C13 (mixture of isomers) [Compound 16] | 1400 nM | – | 127 µM | 2300 nM | 3200 nM | 2300 nM | 3200 nM | 1400 nM | 1400 nM | 127 µM | single digit |
| C=CCN1c2ccccc2[C@]23CCC(=O)N(Cc4cc(OC)c(OC)c(OC)c4)C2=NC(C(=O)OC)=C(C(=O)OC)C13 (mixture of isomers) [Compound 17] | – | – | 5.3 µM | 3800 nM | 3000 nM | 3800 nM | 3000 nM | 2000 nM | 2000 nM | – | – |
| CC#CCN1c2ccccc2[C@]23CCC(=O)N(CCOC)C2=NC(C(=O)OC)=C(C(=O)OC)C13 (mixture of isomers) [Compound 15] | – | – | > 320 µM | 4900 nM | 700 nM | 4900 nM | 700 nM | 2000 nM | 2000 nM | > 320 µM | single digit |
| COC(=O)[C@@H]1C[C@@]23C(=NC(c4ccc([N+](=O)[O-])cc4)=C(C(F)(F)F)C2N(C)c2ccccc23)N1C(C)=O (some centres unmarked) [Compound 22a] | 5600 nM | – | 310 µM | 1300 nM | 900 nM | – | – | – | – | – | – |
| COC(=O)C1=C(C(=O)OC)C2N(C)c3ccc(OC)cc3[C@@]23C[C@@H](C(=O)OC)N(C(=O)CC(C)C)C3=N1 (single isomer, unassigned) [Compound 1] | 5700 nM | – | > 320 µM | 8800 nM | 8100 nM | 14800 nM | 22200 nM | 9300 nM | 9300 nM | > 320 µM | – |
| COC(=O)C1=C(C(=O)OC)C(NCCCN2c3ccccc3[C@]34CCC(=O)N(Cc5ccccc5)C3=NC(C(=O)OC)=C(C(=O)OC)C24)[C@@]2(c3ccccc3)CCC(=O)N(Cc3ccccc3)C2=N1 (some centres unmarked) [SL235] | – | – | > 36 µM | 88 nM | 735 nM | – | – | 2900 nM | – | – | – |
| COC(=O)C1=C(C(=O)OC)C2N(CCCCCn3cc(CNC(C)=O)nn3)c3ccccc3[C@@]23CCC(=O)N(Cc2ccccc2)C3=N1 (some centres unmarked) [Compound 28] | – | sub-micromolar | 150 µM | 26200 nM | 56200 nM | – | – | 341 nM | – | – | – |
